According to patent US6737383B1, “Herbicidal oxadiazolidines” (priority 1999, dated 2004):

Columns and labels:
[1] = tested on: rape; assay: Test B pre/postemergence rape; type: in vivo, Brassica napus
Summary of the method: (§1)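 Herbicidal effect was estimated by eye on a ten-point control scale after plants spent twelve to sixteen days in a greenhouse following soil or foliar treatment. Foliar sprays targeted plants at one to four leaves; all doses were formulated in a non-phytotoxic solvent with surfactant.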

[2] = tested on: cocklebur; assay: Test B pre/postemergence cocklebur; type: in vivo, Xanthium strumarium
Summary of the method: as §1

[3] = tested on: pigweed; assay: Test B pre/postemergence pigweed; type: in vivo, Amaranthus retroflexus
Summary of the method: as §1

[4] = tested on: duck salad; assay: Test B flood test duck salad; type: in vivo, Heteranthera limosa
Summary of the method: (§2)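 Plants were grown to the 2-leaf stage before treatment with test chemical, then held in a greenhouse for twelve to sixteen days. Injury was visually rated against untreated controls on a 0–10 scale, where 0 is no effect and 10 is complete control.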

[5] = tested on: morningglory; assay: Test B pre/postemergence morningglory; type: in vivo, Ipomoea hederacea
Summary of the method: as §1

[6] = tested on: rice; assay: Test B flood test rice; type: in vivo, Oryza sativa
Summary of the method: as §2

[7] = tested on: purple nutsedge; assay: Test B pre/postemergence purple nutsedge; type: in vivo, Cyperus rotundus
Summary of the method: as §1

[8] = tested on: wheat; assay: Test B pre/postemergence wheat; type: in vivo, Triticum aestivum
Summary of the method: as §1

[9] = tested on: surinam grass; assay: Test B pre/postemergence surinam grass; type: in vivo, Brachiaria decumbens
Summary of the method: as §1

[10] = tested on: velvetleaf; assay: Test B pre/postemergence velvetleaf; type: in vivo, Abutilon theophrasti
Summary of the method: as §1

[11] = tested on: blackgrass; assay: Test B pre/postemergence blackgrass; type: in vivo, Alopecurus myosuroides
Summary of the method: as §1

[12] = tested on: wild oat; assay: Test B pre/postemergence wild oat; type: in vivo, Avena fatua
Summary of the method: as §1

[13] = tested on: corn; assay: Test B pre/postemergence corn; type: in vivo, Zea mays
Summary of the method: as §1

[14] = tested on: bedstraw; assay: Test B pre/postemergence bedstraw; type: in vivo, Galium aparine
Summary of the method: as §1

[15] = tested on: smallflower flatsedge; assay: Test B flood test smallflower flatsedge; type: in vivo, Cyperus difformis
Summary of the method: as §2

[16] = tested on: bamyardgrass; assay: Test B flood test barnyardgrass; type: in vivo, Echinochloa crus-galli
Summary of the method: as §2

[17] = Preemergence, Rate 62 g/ha, scale of 0 to 10 where 0 is no effect and 10 is complete control
[18] = Preemergence, Rate 250 g/ha, scale of 0 to 10 where 0 is no effect and 10 is complete control
[19] = Preemergence, Rate 500 g/ha, scale of 0 to 10 where 0 is no effect and 10 is complete control
[20] = Rate 125 g/ha, Postemergence, scale of 0 to 10 where 0 is no effect and 10 is complete control
[21] = Rate 125 g/ha, Preemergence, scale of 0 to 10 where 0 is no effect and 10 is complete control
[22] = Rate 250 g/ha, Postemergence, scale of 0 to 10 where 0 is no effect and 10 is complete control
[23] = Rate 500 g/ha, Postemergence, scale 0 to 10, 0 no effect, 10 complete control
[24] = Rate 62 g/ha, Postemergence, scale of 0 to 10 where 0 is no effect and 10 is complete control
[25] = Rate 62 g/ha, headed Pre-emergence (flood test species), scale 0 to 10 (0 no effect, 10 complete control)
[26] = Rate 125 g/ha, Pre-emergence, flood test species, scale 0 to 10 where 0 is no effect and 10 is complete control
[27] = Rate 250 g/ha, Pre-emergence, flood-test species, scale 0 to 10, 0 is no effect, 10 is complete control
[28] = Rate 500 g/ha, Pre-emergence, flood test species, scale 0 to 10 (0 no effect, 10 complete control)

CC(C)N(C(=O)n1oc(=O)n(C2CCCC2)c1=O)c1ccc(F)cc1 [Compound 271]
8: Redroot pigweed plant response rating [3, 21] | Redroot pigweed plant response rating [3, 23] | Plant response rating, Morningglory [5, 22] | Morningglory plant response rating [5, 23] | B. signalgrass plant response rating [9, 17] | B. signalgrass plant response rating [9, 18] | B. signalgrass plant response rating [9, 21] | Plant response rating, Velvetleaf [10, 19] | Blackgrass plant response rating [11, 17] | Plant response rating, Blackgrass [11, 22] | Blackgrass plant response rating [11, 23] | Plant response rating, Wild oats [12, 19] | Plant response rating, Bedstraw [14, 22] | Bedstraw plant response rating [14, 23]
7: Plant response rating, Redroot pigweed [3, 22] | Plant response rating, Morningglory [5, 19] | Velvetleaf plant response rating [10, 18]
5: Redroot pigweed plant response rating [3, 20] | B. signalgrass plant response rating [9, 23]
2: Rape plant response rating [1, 17] | Morningglory plant response rating [5, 18] | Morningglory plant response rating [5, 20] | Plant response rating, B. signalgrass [9, 22] | Velvetleaf plant response rating [10, 17] | Wild oats plant response rating [12, 17]
9: Blackgrass plant response rating [11, 21] | Barnyardgrass plant response rating [16, 27] | Barnyardgrass plant response rating [16, 28]
4: Rape plant response rating [1, 21] | Plant response rating, Rape [1, 22] | Plant response rating, Cocklebur [2, 19] | Cocklebur plant response rating [2, 23] | Velvetleaf plant response rating [10, 21] | Blackgrass plant response rating [11, 20] | Bedstraw plant response rating [14, 24] | Barnyardgrass plant response rating [16, 25]
1: Plant response rating, Cocklebur [2, 22] | Morningglory plant response rating [5, 17] | Morningglory plant response rating [5, 21]
6: Rape plant response rating [1, 23] | Wild oats plant response rating [12, 18] | Bedstraw plant response rating [14, 20]
10: Rape plant response rating [1, 18] | Plant response rating, Rape [1, 19] | Redroot pigweed plant response rating [3, 18] | Plant response rating, Redroot pigweed [3, 19] | Plant response rating, B. signalgrass [9, 19] | Blackgrass plant response rating [11, 18] | Plant response rating, Blackgrass [11, 19] | Bedstraw plant response rating [14, 18] | Plant response rating, Bedstraw [14, 19] | Bedstraw plant response rating [14, 21]
0: Cocklebur plant response rating [2, 17] | Cocklebur plant response rating [2, 18] | Cocklebur plant response rating [2, 24] | Cocklebur plant response rating [2, 20] | Cocklebur plant response rating [2, 21] | Ducksalad plant response rating [4, 25] | Ducksalad plant response rating [4, 26] | Ducksalad plant response rating [4, 27] | Ducksalad plant response rating [4, 28] | Rice plant response rating [6, 25] | Rice plant response rating [6, 26] | Rice plant response rating [6, 27] | Rice plant response rating [6, 28] | Nutsedge plant response rating [7, 17] | Nutsedge plant response rating [7, 18] | Plant response rating, Nutsedge [7, 19] | Nutsedge plant response rating [7, 20] | Nutsedge plant response rating [7, 21] | Plant response rating, Nutsedge [7, 22] | Nutsedge plant response rating [7, 23] | Wheat plant response rating [8, 17] | Wheat plant response rating [8, 18] | Wheat plant response rating [8, 20] | Wheat plant response rating [8, 21] | Plant response rating, Wheat [8, 22] | Wheat plant response rating [8, 23] | B. signalgrass plant response rating [9, 24] | B. signalgrass plant response rating [9, 20] | Velvetleaf plant response rating [10, 20] | Plant response rating, Velvetleaf [10, 22] | Wild oats plant response rating [12, 20] | Plant response rating, Wild oats [12, 22] | Corn plant response rating [13, 17] | Corn plant response rating [13, 18] | Corn plant response rating [13, 24] | Corn plant response rating [13, 20] | Corn plant response rating [13, 21] | Plant response rating, Corn [13, 22] | Corn plant response rating [13, 23] | S. Flatsedge plant response rating [15, 25] | S. Flatsedge plant response rating [15, 26] | S. Flatsedge plant response rating [15, 27] | S. Flatsedge plant response rating [15, 28]
3: Rape plant response rating [1, 20] | Redroot pigweed plant response rating [3, 17] | Plant response rating, Wheat [8, 19] | Velvetleaf plant response rating [10, 23] | Blackgrass plant response rating [11, 24] | Wild oats plant response rating [12, 23] | Plant response rating, Corn [13, 19] | Bedstraw plant response rating [14, 17] | Barnyardgrass plant response rating [16, 26]
